The target of the assay is T1, Human cRaf1 (Homo sapiens, UniProt P04049).
T1 construct: poly-histidine (C); made in house
Kind of assay: Raf kinase assay (cRaf1 assay / Raf/MEK cascade assay). It is filed as biochemical. Conditions: Table 3; read-out: Raf Kinase activity. How it is done: The potency of cRaf1 dependent kinase activity was measured using one of two assay formats. The first measured cRaf1 catalyzed phosphorylation of MEK1, the natural substrate for cRaf1. This assay is referred to as the cRaf1 assay. The second measured the ability of cRaf1 to phosphorylate and activate MEK1. This assay is referred to as the Raf/MEK cascade assay.
Human cRaf1 tagged with poly histidine at the carboxyterminus was expressed in a baculovirus expression system and purfied by Ni chelate affinity chromatography. Human MEK1 was expressed in E. coli as a fusion protein with Glutathione-S-transferase, and purified by glutathione sepharose affinity chromatography. […] Reactions contained cRaf1 (20 nM), MEK1 (100-500 nM), [γ-^32 P]ATP ([…]), Mg^2+ (10 mM), MOPS (50 mM, pH 7.5). Reactions were incubated at room temperature for periods of time ranging from 20-120 minutes. Inhibitors were diluted in 100% DMSO prior to addition to the assay. Reactions were terminated with an equal volume of 0.5% phosphoric acid. MEK1 phosphorylation was detected by scintillation counting following collection of protein onto phosphocellulose filters.
Human cRaf1 and MEK1 were purified as described above. A peptide substrate phosphorylated by MEK1 was used as the final phosphoryl group acceptor. […] Assay conditions were the same as those described above except for the following modifications. Reactions contained cRaf1 (1-5 nM), MEK1 (60 nM), and peptide ([…]).

Bounds are passed on as bounds.

T1 sequence (P04049 whole entry): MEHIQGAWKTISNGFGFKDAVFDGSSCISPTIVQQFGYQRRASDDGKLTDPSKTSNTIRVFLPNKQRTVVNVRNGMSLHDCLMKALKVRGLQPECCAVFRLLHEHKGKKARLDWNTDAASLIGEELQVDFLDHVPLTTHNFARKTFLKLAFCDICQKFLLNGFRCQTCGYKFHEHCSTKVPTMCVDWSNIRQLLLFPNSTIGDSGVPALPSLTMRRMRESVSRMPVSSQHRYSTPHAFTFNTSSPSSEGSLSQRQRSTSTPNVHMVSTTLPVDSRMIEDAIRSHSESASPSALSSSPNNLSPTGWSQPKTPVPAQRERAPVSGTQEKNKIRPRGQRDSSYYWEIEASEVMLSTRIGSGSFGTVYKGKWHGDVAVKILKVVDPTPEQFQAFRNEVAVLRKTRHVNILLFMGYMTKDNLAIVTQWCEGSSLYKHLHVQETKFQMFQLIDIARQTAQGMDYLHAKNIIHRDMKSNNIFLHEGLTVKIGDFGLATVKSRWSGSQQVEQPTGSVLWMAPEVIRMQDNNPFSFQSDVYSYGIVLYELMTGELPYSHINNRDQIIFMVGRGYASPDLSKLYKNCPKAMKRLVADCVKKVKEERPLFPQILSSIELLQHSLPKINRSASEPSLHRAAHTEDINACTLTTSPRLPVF

Turning to `CCN(CC)CC(=O)c1ccc2c(c1)C(=Cc1cc(Br)c(O)c(Br)c1)C(=O)N2` [Example 83, 3-(3,5-Dibromo-4-hydroxy-benzylidene)-5-(2-diethylamino-acetyl)-1,3-dihydro-indol-2-one], the IC50 was under 1000 nM.
For the molecule `O=C1Nc2c(I)cc(C(=O)CCl)cc2C1=Cc1cc(Br)c(O)c(Br)c1` [Example 86, 5-(2-Chloro-acetyl)-3-(3,5-dibromo-4-hydroxy-benzylidene)-7-iodo-1,3-dihydro-indol-2-one], the IC50 is under 1000 nM.
On to `O=C1Nc2ccc(I)cc2C1=Cc1cc(Br)c(OC(=O)N(CCO)CCO)c(Br)c1` [Example 87, N-[bis-(2-hydroxy-ethyl)]carbamic acid, 2,6-dibromo-4-(5-iodo-2-oxo-1,3-dihydro-indol-3-ylidenemethyl) phenyl ester], for which the IC50 lay in the range of 10000 to 100000 nM.
In the case of `O=C1Nc2ccc(C(=O)CCl)cc2C1=Cc1cc(Cl)c(O)c(Cl)c1` [Example 88, 5-(2-Chloro-acetyl)-3-(3,5-dichloro-4-hydroxy-benzylidene)-1,3-dihydro-indol-2-one], the IC50 is under 1000 nM.
With `CC(=O)c1ccc2c(c1)C(=Cc1cc(Br)c(O)c(Br)c1)C(=O)N2` [Example 89, 5-Acetyl-3-(3,5-dibromo-4-hydroxy-benzylidene)-1,3-dihydro-indol-2-one], the IC50 is under 1000 nM.
Turning to `CC(=O)c1ccc2c(c1)C(=Cc1cc(Cl)c(O)c(Cl)c1)C(=O)N2` [Example 90, 5-Acetyl-3-(3,5-dichloro-4-hydroxy-benzylidene)-1,3-dihydro-indol-2-one], the IC50 is under 1000 nM.
`COc1cccc(C(=O)c2ccc3c(c2)C(=Cc2cc(Br)c(O)c(Br)c2)C(=O)N3)c1` [Example 91, 3-(3,5-Dibromo-4-hydroxy-benzylidene)-5-(3-methoxy-benzoyl)-1,3-dihydro-indol-2-one]: the IC50 was under 1000 nM.
To `O=C1Nc2ccc(-c3ccccc3)cc2C1=Cc1cc(Br)c(O)c(Br)c1` [Example 92, 3-(3,5-Dibromo-4-hydroxy-benzylidene)-5-phenyl-1,3-dihydro-indol-2-one] belongs under 1000 nM; to `O=C1Nc2ccc(-c3ccccc3)cc2C1=Cc1cc(Cl)c(O)c(Cl)c1` [Example 93, 3-(3,5-Dichloro-4-hydroxy-benzylidene)-5-phenyl-1,3-dihydro-indol-2-one], under 1000 nM.
To `CCNc1nc(-c2ccc3c(c2)C(=Cc2cc(Br)c(O)c(Br)c2)C(=O)N3)cs1` [Example 94, 3-(3,5-Dibromo-4-hydroxy-benzylidene)-5-(2-(ethylamino)-4H-thiazol-4-yl)-1,3-dihydro-indol-2-one] belongs under 1000 nM; to `O=C1Nc2ccc(C(=O)c3ccc([N+](=O)[O-])cc3)cc2C1=Cc1cc(Br)c(O)c(Br)c1` [Example 95, 3-(3,5-Dibromo-4-hydroxy-benzylidene)-5-(4-nitro-benzoyl)-1,3-dihydro-indol-2-one], under 1000 nM.
As to `O=C1Nc2ccc(C(=O)c3cccc([N+](=O)[O-])c3)cc2C1=Cc1cc(Br)c(O)c(Br)c1` [Example 96, 3-(3,5-Dibromo-4-hydroxy-benzylidene)-5-(3-nitro-benzoyl)-1,3-dihydro-indol-2-one], the IC50 was under 1000 nM.
Consider `O=C1Nc2ccc(C(=NO)c3ccccc3)cc2C1=Cc1cc(Br)c(O)c(Br)c1` [Example 97, 3-(3,5-Dibromo-4-hydroxy-benzylidene)-5-((hydroxyimino)-phenyl-methyl)-1,3-dihydro-indol-2-one], for which the IC50 is under 1000 nM.
Take `CCC(=O)c1ccc2c(c1)C(=Cc1cc(Cl)c(O)c(Cl)c1)C(=O)N2` [Example 98, 3-(3,5-Dichloro-4-hydroxy-benzylidene)-5-propionyl-1,3-dihydro-indol-2-one]: the IC50 is under 1000 nM.
With `NS(=O)(=O)c1ccc2c(c1)C(=Cc1cc(Cl)c(O)c(Cl)c1)C(=O)N2` [Example 99, 3-(3,5-Dichloro-4-hydroxy-benzylidene)-2-oxo-2,3-dihydro-1H-indole-5-sulfonic acid amide] the figure was under 1000 nM.
